In DBAASP:
In brackets after ≈: the same amount, converted by molar mass.

How the values were obtained:
Test in all cases: ≥ marks a high value that may be exact or a test limit, other limits are often not marked, values filed in µg/mL are converted to µM
[1] = test system: Escherichia coli JW0013
[2] = test system: Staphylococcus aureus ATCC 29213
[3] = test system: Escherichia coli SBS 363

| SMILES | MIC [1] [µM] | MIC [2] [µM] | MIC [3] [µM] |
| --- | --- | --- | --- |
| CC[C@H](C)[C@H](NC(=O)[C@H](CCCN=C(N)N)NC(=O)[C@H](CCCN=C(N)N)NC(=O)[C@@H]1CCCN1C(=O)[C@@H]1CCCN1C(=O)[C@H](CCCN=C(N)N)NC(=O)[C@@H]1CCCN1C(=O)[C@H](CCCN=C(N)N)NC(=O)[C@@H]1CCCN1C(=O)[C@H](CC(C)C)NC(=O)[C@H](Cc1ccc(O)cc1)NC(=O)[C@@H]1CCCN1C(=O)[C@@H]1CCCN1C(=O)[C@H](CCCCN)NC(=O)[C@H](CC(=O)O)NC(=O)[C@@H](N)CCC(N)=O)C(=O)N[C@@H](Cc1ccc(O)cc1)C(=O)N[C@@H](CC(N)=O)C(=O)N[C@@H](CCCN=C(N)N)C(N)=O [QDKPPYLPRPRPPRRIYNR] | 1.98 (≈ 4.8 µg/mL) |  |  |
| CC[C@H](C)[C@H](NC(=O)[C@H](C)NC(=O)[C@H](CCC(N)=O)NC(=O)[C@H](Cc1cnc[nH]1)NC(=O)CNC(=O)[C@H](CCSC)NC(=O)[C@@H]1CCCN1C(=O)[C@H](CCCN=C(N)N)NC(=O)CNC(=O)[C@@H]1CSSC[C@@H]2NC(=O)[C@H](CC(N)=O)NC(=O)[C@H](Cc3cnc[nH]3)NC(=O)[C@H](CCCCN)NC(=O)[C@H](CC(=O)O)NC(=O)[C@H](CC(N)=O)NC(=O)[C@H]([C@@H](C)O)NC(=O)[C@@H]3CSSC[C@H](NC(=O)[C@H](CCCCN)NC(=O)[C@H](CC(C)C)NC(=O)[C@H](CCCCN)NC(=O)[C@H](Cc4ccccc4)NC(=O)[C@H](CC(C)C)NC(=O)CNC(=O)[C@H](CCCCN)NC(=O)[C@H](CCCN=C(N)N)NC(=O)[C@H](CSSC[C@H](NC(=O)[C@@H](N)CO)C(=O)N[C@@H]([C@@H](C)CC)C(=O)N4CCC[C@H]4C(=O)N[C@@H](CCCCN)C(=O)N[C@@H](Cc4cnc[nH]4)C(=O)N[C@@H](CCC(=O)O)C(=O)N[C@@H](CCC(=O)O)C(=O)N3)NC2=O)C(=O)N[C@@H](CCC(N)=O)C(=O)N[C@H]2CSSC[C@H](NC(=O)[C@H](CCCN=C(N)N)NC(=O)[C@H](CCC(=O)O)NC(=O)[C@H]([C@@H](C)O)NC(=O)[C@@H]3CCCN3C(=O)[C@H](CCC(N)=O)NC(=O)CNC(=O)[C@H](CO)NC(=O)[C@H](CCC(=O)O)NC(=O)[C@H](CC(=O)O)NC(=O)[C@H](CC(=O)O)NC(=O)[C@H](Cc3ccccc3)NC(=O)[C@H]([C@@H](C)O)NC(=O)[C@H](CO)NC2=O)C(=O)N[C@@H](C)C(=O)N1)C(=O)N[C@@H](CCC(=O)O)C(=O)N[C@H](C(=O)NCC(=O)N[C@@H](CC(C)C)C(=O)N[C@@H](CC(N)=O)C(=O)N[C@H](C(=O)N[C@@H](Cc1ccccc1)C(=O)N[C@@H](CCCN=C(N)N)C(=O)NCC(=O)N[C@@H](CC(C)C)C(=O)N[C@@H](Cc1ccccc1)C(=O)N[C@@H](CCCCN)C(=O)NCC(=O)N[C@@H](CCCCN)C(=O)N[C@@H](CCCCN)C(=O)N[C@@H](CCCCN)C(=O)N[C@@H](CC(N)=O)C(=O)N[C@@H](CCCCN)C(=O)N[C@@H](CCCCN)C(=O)N[C@H](C(=O)N[C@@H](CCCCN)C(N)=O)[C@@H](C)O)[C@@H](C)CC)[C@@H](C)O [SCIPKHEECTNDKHNCCRKGLFKLKCQCSTFDDESGQPTERCACGRPMGHQAIETGLNIFRGLFKGKKKNKKTK] |  | > 250 | 22.1 (≈ 185 µg/mL) |
| CC[C@H](C)[C@H](NC(=O)[C@H](CCCN=C(N)N)NC(=O)[C@H](CCCN=C(N)N)NC(=O)[C@@H]1CCCN1C(=O)[C@@H]1CCCN1C(=O)[C@H](CCCN=C(N)N)NC(=O)[C@H](Cc1c[nH]c2ccccc12)NC(=O)[C@H](CCCN=C(N)N)NC(=O)[C@@H]1CCCN1C(=O)[C@H](CC(C)C)NC(=O)[C@H](Cc1ccc(O)cc1)NC(=O)[C@@H]1CCCN1C(=O)[C@@H]1CCCN1C(=O)[C@H](CCCCN)NC(=O)[C@H](CC(=O)O)NC(=O)[C@@H](N)C(C)C)C(=O)N[C@@H](Cc1ccc(O)cc1)C(=O)N[C@@H](CC(N)=O)C(=O)N[C@@H](CCCN=C(N)N)C(N)=O [VDKPPYLPRWRPPRRIYNR] | 1.94 (≈ 4.8 µg/mL) |  |  |
| CC[C@H](C)[C@H](NC(=O)[C@H](CCCN=C(N)N)NC(=O)[C@H](CCCN=C(N)N)NC(=O)[C@@H]1CCCN1C(=O)[C@@H]1CCCN1C(=O)[C@H](CCCN=C(N)N)NC(=O)[C@@H]1CCCN1C(=O)[C@@H](NC(=O)[C@@H]1CCCN1C(=O)[C@H](CC(C)C)NC(=O)[C@H](Cc1ccc(O)cc1)NC(=O)[C@@H]1CCCN1C(=O)[C@@H]1CCCN1C(=O)[C@H](CCCCN)NC(=O)[C@H](CC(=O)O)NC(=O)[C@@H](N)C(C)C)[C@@H](C)O)C(=O)N[C@@H](Cc1ccc(O)cc1)C(=O)N[C@@H](CC(N)=O)C(=O)N[C@@H](CCCN=C(N)N)C(N)=O [VDKPPYLPTPRPPRRIYNR] | 2.06 (≈ 4.8 µg/mL) |  |  |
| CC[C@H](C)[C@H](NC(=O)[C@H](CCCN=C(N)N)NC(=O)[C@H](CCCN=C(N)N)NC(=O)[C@@H]1CCCN1C(=O)[C@@H]1CCCN1C(=O)[C@H](CCCN=C(N)N)NC(=O)[C@H](CCCN=C(N)N)NC(=O)[C@H](CCCN=C(N)N)NC(=O)[C@@H]1CCCN1C(=O)[C@H](CCCN=C(N)N)NC(=O)[C@H](Cc1ccc(O)cc1)NC(=O)[C@@H]1CCCN1C(=O)[C@H](CCCN=C(N)N)NC(=O)[C@H](CCCCN)NC(=O)[C@H](CC(=O)O)NC(=O)[C@@H](N)C(C)C)C(=O)N[C@@H](Cc1ccc(O)cc1)C(=O)N[C@@H](CC(N)=O)C(=O)N[C@@H](CCCN=C(N)N)C(N)=O [VDKRPYRPRRRPPRRIYNR] | 0.941 (≈ 2.4 µg/mL) |  |  |

Other lines, results leading:

| MIC [1] [µM] | MIC [2] [µM] | MIC [3] [µM] | SMILES |
| --- | --- | --- | --- |
| 0.24 (≈ 0.492 µg/mL) |  |  | CC[C@H](C)[C@H](NC(=O)[C@H](CCCN=C(N)N)NC(=O)[C@@H](N)CCCN=C(N)N)C(=O)N[C@@H](CCCCN)C(=O)N1CCC[C@H]1C(=O)N[C@@H](CCCN=C(N)N)C(=O)N1CCC[C@H]1C(=O)N1CCC[C@H]1C(=O)N[C@@H](CCCN=C(N)N)C(=O)N[C@@H](CC(C)C)C(=O)N1CCC[C@H]1C(=O)N[C@@H](CCCN=C(N)N)C(=O)N1CCC[C@H]1C(=O)N[C@@H](CCCN=C(N)N)C(=O)N1CCC[C@H]1C(=O)N[C@@H](CCCN=C(N)N)C(=O)O [RRIKPRPPRLPRPRPR] |
| 0.3 (≈ 0.641 µg/mL) |  |  | CC[C@H](C)[C@H](NC(=O)[C@H](CCCN=C(N)N)NC(=O)[C@@H](N)CCCN=C(N)N)C(=O)N[C@@H](CCCN=C(N)N)C(=O)N1CCC[C@H]1C(=O)N[C@@H](CCCN=C(N)N)C(=O)N[C@@H](CCCN=C(N)N)C(=O)N1CCC[C@H]1C(=O)N[C@@H](CCCN=C(N)N)C(=O)N[C@@H](CC(C)C)C(=O)N1CCC[C@H]1C(=O)N[C@@H](CCCN=C(N)N)C(=O)N1CCC[C@H]1C(=O)N[C@@H](CCCN=C(N)N)C(=O)N1CCC[C@H]1C(=O)N[C@@H](CCCN=C(N)N)C(=O)O [RRIRPRRPRLPRPRPR] |
